Read-outs that look alike come from different tables or passages of the source. Residues, ends and D or L forms follow the SMILES beside them. No end group written: not given here.
How the values were obtained:
Format in all cases: biochemical
[1] = target: T1, HDAC1/MTA1(aa: 162–546)/RBBP4 core NuRD complex (HMR) (Homo sapiens, UniProt Q09028+Q13330+Q13547); experiment: Boc-Lys HDAC inhibition assay; settings: 50 nM complex, 20 min preincubation rt, 100 μM Boc-(Ac)Lys-AMC, 37 °C 30 min, technical replicates N = 2
T1 construct: made in house; host or cells: HEK293F
T1 sequence (Q13547 whole entry, species assumed): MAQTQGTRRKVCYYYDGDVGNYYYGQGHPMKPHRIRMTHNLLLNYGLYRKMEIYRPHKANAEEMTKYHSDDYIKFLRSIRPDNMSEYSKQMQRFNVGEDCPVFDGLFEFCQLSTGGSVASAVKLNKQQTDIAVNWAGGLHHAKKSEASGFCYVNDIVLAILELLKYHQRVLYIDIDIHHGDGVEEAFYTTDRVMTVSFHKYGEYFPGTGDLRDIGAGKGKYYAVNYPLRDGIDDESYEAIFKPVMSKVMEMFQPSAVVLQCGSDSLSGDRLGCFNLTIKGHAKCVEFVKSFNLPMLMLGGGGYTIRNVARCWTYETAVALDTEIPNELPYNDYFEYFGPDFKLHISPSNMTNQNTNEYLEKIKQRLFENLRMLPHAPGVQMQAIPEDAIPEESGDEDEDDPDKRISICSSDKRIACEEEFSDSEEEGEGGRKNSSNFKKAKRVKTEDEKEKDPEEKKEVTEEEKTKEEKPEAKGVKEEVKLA
T1 sequence (Q13330 162-546 partner limits assumed, species assumed): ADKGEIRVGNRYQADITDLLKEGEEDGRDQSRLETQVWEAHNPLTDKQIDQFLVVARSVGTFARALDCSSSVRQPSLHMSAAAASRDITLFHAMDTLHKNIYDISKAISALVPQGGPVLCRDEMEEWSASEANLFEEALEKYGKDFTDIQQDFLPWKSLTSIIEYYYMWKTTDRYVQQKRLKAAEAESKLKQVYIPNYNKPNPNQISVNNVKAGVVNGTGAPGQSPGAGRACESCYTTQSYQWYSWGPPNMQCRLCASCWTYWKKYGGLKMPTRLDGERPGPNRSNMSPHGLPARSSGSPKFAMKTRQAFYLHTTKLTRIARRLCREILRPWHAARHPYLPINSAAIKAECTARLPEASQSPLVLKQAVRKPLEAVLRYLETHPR
T1 sequence (Q09028 whole entry partner, species assumed): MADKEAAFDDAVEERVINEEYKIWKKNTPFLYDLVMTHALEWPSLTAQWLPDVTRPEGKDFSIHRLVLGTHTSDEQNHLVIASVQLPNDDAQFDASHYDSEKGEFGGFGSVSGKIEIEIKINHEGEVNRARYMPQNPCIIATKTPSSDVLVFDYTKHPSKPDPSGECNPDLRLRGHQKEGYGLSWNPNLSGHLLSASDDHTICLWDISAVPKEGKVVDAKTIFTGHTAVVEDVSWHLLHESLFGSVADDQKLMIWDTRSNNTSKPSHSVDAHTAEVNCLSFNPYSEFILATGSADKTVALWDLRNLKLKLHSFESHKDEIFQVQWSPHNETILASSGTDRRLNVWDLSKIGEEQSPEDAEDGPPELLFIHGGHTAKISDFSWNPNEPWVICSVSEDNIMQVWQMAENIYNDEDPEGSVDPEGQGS
Experimental: (§1) Inhibition assays with various peptide inhibitors were performed using a fluorescence-based assay. The inhibitor peptides were initially dissolved in 5% dimethyl sulfoxide (DMSO) at a stock concentration of 25 mM before being further diluted in the HDAC assay buffer (50 mM Tris/HCl, pH 7.5, 150 mM NaCl). Serial dilutions (1:3) of the inhibitor were prepared, starting at a concentration of 500 μM. HDAC complexes were diluted to a final concentration of 50 nM and incubated with the inhibitor for 20 min at rt. The Boc-(Ac)Lys-AMC substrate was added at a final concentration of 100 μM The final volume of the reaction was 50 μL. The reaction was incubated at 37 °C, 150 rpm, for 30 min, before a developer (50 mM Tris, pH 7.5, 100 mM NaCl, 10 mg/mL trypsin) was added. The reaction was incubated with the developer for 10 min before being measured (PerkinElmer, 2030 multilabel reader, VICTOR X5, excitation 335 nm, emission 460 nm). The absorbance of the buffer as the blank control was subtracted from the HDAC activity, and IC50 calculations were performed using the nonlinear regression log(inhibitor) vs response equation Y = bottom + (top – bottom)/(1+10^(X–Log IC50)) in Graphpad Prism 9.

CoREST complex = target: T2, CoREST complex (Homo sapiens, UniProt Q13547+Q9UKL0); experiment: Boc-Lys HDAC inhibition assay; settings: HDAC complexes tables; 50 nM complex, 100 μM Boc-(Ac)Lys-AMC, 37 °C 30 min; technical replicates N = 2
T2 construct: made in house; host or cells: HEK293F
T2 sequence (Q13547 whole entry, other chains not shown): as the sequence (Q13547 whole entry, species assumed) above
T2 sequence (Q9UKL0 86-485 partner limits assumed, other chains not shown): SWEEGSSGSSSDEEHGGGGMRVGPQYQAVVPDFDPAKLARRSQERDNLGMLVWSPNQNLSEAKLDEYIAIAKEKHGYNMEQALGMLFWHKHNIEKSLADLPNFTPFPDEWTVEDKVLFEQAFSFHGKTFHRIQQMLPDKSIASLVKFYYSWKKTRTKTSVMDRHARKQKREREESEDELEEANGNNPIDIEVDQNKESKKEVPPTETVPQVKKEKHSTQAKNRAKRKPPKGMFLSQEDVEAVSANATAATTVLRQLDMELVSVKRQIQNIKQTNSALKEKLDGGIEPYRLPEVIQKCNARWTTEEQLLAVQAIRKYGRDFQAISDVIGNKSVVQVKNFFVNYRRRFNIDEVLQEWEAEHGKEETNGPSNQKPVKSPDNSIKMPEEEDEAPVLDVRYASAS
Description: (§2) Finally, we directed our attention toward assessing how the results from the experiments with HMR would be common to the other known class I HDAC corepressor complexes. RERE, MIER1, CoREST, HMR, MiDAC, Sin3A, and SMRT were expressed and purified, and the concentrations were normalized based on the concentration of HDAC1 or HDAC3 (Figure 4A). We determined the potency of H3(23–29)K27Hd 12 and H4(12–18)K16Hd 16 against RERE, MIER1, CoREST, NuRD, MiDAC, Sin3A, and SMRT (Figure 4B). In addition, we repeated the H3(23–29)K27Hd alanine scan experiment for each of these complexes to assess whether or not the importance of Lys23 for maintaining potency against HMR was replicated across the other complexes (Figure 4C).
as §1

MIER1 complex = target: T3, MIER1 complex (Homo sapiens, UniProt Q13547+Q8N108); experiment: Boc-Lys HDAC inhibition assay; settings: HDAC complexes tables; 50 nM complex, 100 μM Boc-(Ac)Lys-AMC, 37 °C 30 min; technical replicates N = 2
T3 construct: made in house; host or cells: HEK293F
T3 sequence (Q13547 whole entry): as the sequence (Q13547 whole entry, species assumed) above
T3 sequence (Q8N108 whole entry partner): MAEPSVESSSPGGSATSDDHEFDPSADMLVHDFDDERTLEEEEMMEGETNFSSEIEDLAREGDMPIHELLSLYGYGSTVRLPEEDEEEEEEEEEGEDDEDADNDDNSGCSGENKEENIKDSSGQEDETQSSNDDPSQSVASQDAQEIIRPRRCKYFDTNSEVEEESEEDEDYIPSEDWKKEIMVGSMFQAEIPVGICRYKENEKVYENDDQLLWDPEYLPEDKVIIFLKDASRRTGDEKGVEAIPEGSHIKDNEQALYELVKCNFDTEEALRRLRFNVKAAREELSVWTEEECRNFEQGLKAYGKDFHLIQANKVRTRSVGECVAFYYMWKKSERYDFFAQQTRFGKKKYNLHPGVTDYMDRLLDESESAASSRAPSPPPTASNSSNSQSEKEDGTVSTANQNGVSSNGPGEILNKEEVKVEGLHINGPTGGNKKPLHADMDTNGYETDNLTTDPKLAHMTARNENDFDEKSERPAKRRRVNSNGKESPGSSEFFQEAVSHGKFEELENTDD
Description: as §2, §1

MiDAC complex = target: T4, MiDAC complex (Homo sapiens, UniProt Q13547+Q6PJG2+Q9H147); experiment: Boc-Lys HDAC inhibition assay; settings: HDAC complexes tables; 50 nM complex, 100 μM Boc-(Ac)Lys-AMC, 37 °C 30 min; technical replicates N = 2
T4 construct: made in house; host or cells: HEK293F
T4 sequence (Q13547 whole entry): as the sequence (Q13547 whole entry, species assumed) above
T4 sequence (Q6PJG2 628-887 partner limits assumed): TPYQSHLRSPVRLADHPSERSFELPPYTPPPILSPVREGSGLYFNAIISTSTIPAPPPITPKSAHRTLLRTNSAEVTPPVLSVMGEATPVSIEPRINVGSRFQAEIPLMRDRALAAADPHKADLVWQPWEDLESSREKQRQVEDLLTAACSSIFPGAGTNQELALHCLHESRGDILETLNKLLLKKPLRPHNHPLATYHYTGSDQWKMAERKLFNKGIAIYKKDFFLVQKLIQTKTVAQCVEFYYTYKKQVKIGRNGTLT
T4 sequence (Q9H147 whole entry partner): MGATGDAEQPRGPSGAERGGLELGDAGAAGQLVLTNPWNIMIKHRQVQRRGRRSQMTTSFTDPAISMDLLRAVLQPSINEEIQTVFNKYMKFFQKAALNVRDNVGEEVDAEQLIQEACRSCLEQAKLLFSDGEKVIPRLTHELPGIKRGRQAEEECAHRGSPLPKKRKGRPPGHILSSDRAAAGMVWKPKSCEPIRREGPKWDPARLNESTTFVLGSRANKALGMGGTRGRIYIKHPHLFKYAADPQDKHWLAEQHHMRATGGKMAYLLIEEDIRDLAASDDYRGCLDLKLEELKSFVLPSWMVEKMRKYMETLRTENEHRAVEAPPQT
Description: as §2, §1

RERE complex = target: T5, RERE complex (Homo sapiens, UniProt Q13547+Q9P2R6); experiment: Boc-Lys HDAC inhibition assay; settings: HDAC complexes tables; 50 nM complex, 100 μM Boc-(Ac)Lys-AMC, 37 °C 30 min; technical replicates N = 2
T5 construct: made in house; host or cells: HEK293F
T5 sequence (Q13547 whole entry): as the sequence (Q13547 whole entry, species assumed) above
T5 sequence (Q9P2R6 whole entry partner): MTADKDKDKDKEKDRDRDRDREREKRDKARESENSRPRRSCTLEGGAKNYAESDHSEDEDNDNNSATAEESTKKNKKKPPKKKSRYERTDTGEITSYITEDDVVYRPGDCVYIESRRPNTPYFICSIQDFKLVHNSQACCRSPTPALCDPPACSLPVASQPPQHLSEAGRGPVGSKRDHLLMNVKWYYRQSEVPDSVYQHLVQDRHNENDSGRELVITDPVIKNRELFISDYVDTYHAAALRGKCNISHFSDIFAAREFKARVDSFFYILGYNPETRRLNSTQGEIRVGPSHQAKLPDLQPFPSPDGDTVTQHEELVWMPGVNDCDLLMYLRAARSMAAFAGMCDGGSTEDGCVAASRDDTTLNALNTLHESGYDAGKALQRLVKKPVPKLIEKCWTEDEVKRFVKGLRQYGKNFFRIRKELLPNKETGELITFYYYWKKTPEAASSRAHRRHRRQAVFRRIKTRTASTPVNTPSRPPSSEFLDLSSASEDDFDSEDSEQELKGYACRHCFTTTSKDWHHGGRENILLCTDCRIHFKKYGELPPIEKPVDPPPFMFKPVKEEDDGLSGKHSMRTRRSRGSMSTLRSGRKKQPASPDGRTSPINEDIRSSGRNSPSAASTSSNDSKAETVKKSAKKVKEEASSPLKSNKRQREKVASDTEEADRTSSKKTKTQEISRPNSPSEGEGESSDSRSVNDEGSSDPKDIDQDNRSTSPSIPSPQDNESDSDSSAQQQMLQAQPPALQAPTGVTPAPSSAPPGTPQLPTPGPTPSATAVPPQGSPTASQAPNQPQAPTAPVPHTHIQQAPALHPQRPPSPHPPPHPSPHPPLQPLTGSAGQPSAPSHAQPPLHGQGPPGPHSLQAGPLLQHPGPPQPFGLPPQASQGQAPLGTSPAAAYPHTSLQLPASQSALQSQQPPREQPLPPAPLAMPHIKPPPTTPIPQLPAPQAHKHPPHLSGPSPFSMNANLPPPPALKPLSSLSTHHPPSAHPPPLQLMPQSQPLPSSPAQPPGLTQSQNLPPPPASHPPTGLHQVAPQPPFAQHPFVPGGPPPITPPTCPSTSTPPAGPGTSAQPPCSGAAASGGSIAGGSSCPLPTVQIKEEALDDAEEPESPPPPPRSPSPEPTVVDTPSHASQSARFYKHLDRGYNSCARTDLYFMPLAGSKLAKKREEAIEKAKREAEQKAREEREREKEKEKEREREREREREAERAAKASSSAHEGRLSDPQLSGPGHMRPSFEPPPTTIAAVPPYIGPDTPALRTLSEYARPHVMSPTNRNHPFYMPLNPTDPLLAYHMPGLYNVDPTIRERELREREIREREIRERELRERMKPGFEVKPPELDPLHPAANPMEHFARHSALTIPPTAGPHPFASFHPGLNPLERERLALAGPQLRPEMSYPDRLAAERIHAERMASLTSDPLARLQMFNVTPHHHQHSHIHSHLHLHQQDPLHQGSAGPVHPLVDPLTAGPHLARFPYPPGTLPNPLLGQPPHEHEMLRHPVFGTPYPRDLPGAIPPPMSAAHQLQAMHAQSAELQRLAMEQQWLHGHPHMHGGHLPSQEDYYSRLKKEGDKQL
Description: as §2, §1

SMRT complex (HDAC3) = target: T6, SMRT complex (HDAC3) (Homo sapiens, UniProt O15379); experiment: Boc-Lys HDAC inhibition assay; settings: HDAC complexes tables; 50 nM complex, 100 μM Boc-(Ac)Lys-AMC, 37 °C 30 min; technical replicates N = 2
T6 construct: made in house; host or cells: HEK293F
T6 sequence (O15379 whole entry, species assumed, one chain of several): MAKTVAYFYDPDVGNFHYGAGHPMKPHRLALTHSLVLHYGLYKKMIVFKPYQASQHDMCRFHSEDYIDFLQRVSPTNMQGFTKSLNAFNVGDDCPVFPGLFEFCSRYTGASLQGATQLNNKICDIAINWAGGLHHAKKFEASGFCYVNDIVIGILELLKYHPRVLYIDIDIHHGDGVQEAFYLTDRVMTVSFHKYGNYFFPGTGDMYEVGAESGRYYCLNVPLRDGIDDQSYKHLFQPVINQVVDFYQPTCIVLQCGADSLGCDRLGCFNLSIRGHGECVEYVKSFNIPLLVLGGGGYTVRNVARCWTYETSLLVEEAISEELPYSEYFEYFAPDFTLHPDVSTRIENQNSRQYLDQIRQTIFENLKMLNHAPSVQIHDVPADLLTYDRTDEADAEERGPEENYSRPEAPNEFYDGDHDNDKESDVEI
Description: as §2, §1

Sin3A complex = target: T7, Sin3A complex (Homo sapiens, UniProt Q13547); experiment: Boc-Lys HDAC inhibition assay; settings: HDAC complexes tables; 50 nM complex, 100 μM Boc-(Ac)Lys-AMC, 37 °C 30 min; technical replicates N = 2
T7 construct: made in house; host or cells: HEK293F
Description: as §2, §1

[2] = target: T1, HDAC1/MTA1(aa: 162–546)/RBBP4 core NuRD complex (HMR); experiment: Caliper deacetylation assay (rate-of-turnover of substrate peptides); settings: 125 nM HMR, 2 μM peptide; for Initial Rate of HMR against histone peptides: Rate (% conversion min-1): 50 mM Tris/HCl pH 7.5, 50 mM NaCl, 5% glycerol, linear fit of first 8 min, Caliper EZ Reader II, technical replicates N = 2
Experimental: The acetyl-lysine-containing library (compounds 1–8) was assessed for the initial rate at which they were deacetylated by the HMR complex (Figure 2A).
Reactions (30 μL) contained 125 nM HMR and 2 μM fluorescein-labeled peptides (peptides 1–8) in 50 mM Tris/HCl, pH 7.5, 50 mM NaCl, and 5% glycerol. The deacetylase reaction was recorded over a 30 min period, every 90 s, using a Caliper EZ Reader II System (Caliper Life Sciences, http://www.caliperls.com). The initial rates were calculated using the formula Y = Y-intercept + slope × X during the first 8 min of the reaction using GraphPad Prism 9.

[3] = inhibitor library experiment, fluorescence, read-out: IC50 of HMR against histone peptide library
[4] = alanine scan / H4K12Hd experiments, read-out: IC50 of HMR against H3 K27Hd, H4 K16Hd and H4K12Hd peptides

CC(=O)N[C@@H](C)C(=O)N[C@@H](CCCNC(=N)N)C(=O)N[C@H](C(=O)N[C@@H](CCCCCC(=O)NO)C(=O)N[C@@H](CCC(N)=O)C(=O)N[C@H](C(=O)N[C@@H](C)C(N)=O)[C@@H](C)O)[C@@H](C)O [compound 9, H3 (1-7) K4Hd] (HELM PEPTIDE1{[ac].A.R.T.[O=C([C@H](CCCCCC(=O)[*:3])N[*:1])[*:2]].Q.T.A.[am]}|CHEM1{[ON[*:1]]}$PEPTIDE1,CHEM1,5:R3-1:R1$$$V2.0)
IC50 [1, 3]: 333 nM

CC(=O)N[C@H](C(=O)NCC(=O)NCC(=O)N[C@@H](CCCCCC(=O)NO)C(=O)N[C@@H](C)C(=O)N1CCC[C@H]1C(=O)N[C@@H](CCCNC(=N)N)C(N)=O)[C@@H](C)O [compound 11, H3 (11-17) K14Hd] (HELM PEPTIDE1{[ac].T.G.G.[O=C([C@H](CCCCCC(=O)[*:3])N[*:1])[*:2]].A.P.R.[am]}|CHEM1{[ON[*:1]]}$PEPTIDE1,CHEM1,5:R3-1:R1$$$V2.0)
IC50 [1, 3]: 886 nM

CC(=O)N[C@@H](CO)C(=O)NCC(=O)N[C@@H](CCCNC(=N)N)C(=O)NCC(=O)N[C@@H](CCCCCC(=O)NO)C(=O)NCC(=O)NCC(=O)N[C@@H](CCCCN)C(N)=O [compound 13, H4 (1-8) K5Hd] (HELM PEPTIDE1{[ac].S.G.R.G.[O=C([C@H](CCCCCC(=O)[*:3])N[*:1])[*:2]].G.G.K.[am]}|CHEM1{[ON[*:1]]}$PEPTIDE1,CHEM1,6:R3-1:R1$$$V2.0)
IC50 [1, 3]: 633 nM

CC(=O)NCC(=O)N[C@@H](CCCCN)C(=O)NCC(=O)NCC(=O)N[C@@H](CCCCCC(=O)NO)C(=O)NCC(=O)N[C@@H](CC(C)C)C(N)=O [compound 14, H4 (4-10) K8Hd] (HELM PEPTIDE1{[ac].G.K.G.G.[O=C([C@H](CCCCCC(=O)[*:3])N[*:1])[*:2]].G.L.[am]}|CHEM1{[ON[*:1]]}$PEPTIDE1,CHEM1,6:R3-1:R1$$$V2.0)
IC50 [1, 3]: 431 nM

CC(=O)N[C@@H](C)C(=O)N[C@@H](C)C(=O)N[C@@H](C)C(=O)N[C@@H](CCCNC(=N)N)C(=O)N[C@@H](CCCCCC(=O)NO)C(=O)N[C@@H](CO)C(=O)N[C@@H](C)C(N)=O [compound 21, H3(23–29)K23A K27Hd] (HELM PEPTIDE1{[ac].A.A.A.R.[O=C([C@H](CCCCCC(=O)[*:3])N[*:1])[*:2]].S.A.[am]}|CHEM1{[ON[*:1]]}$PEPTIDE1,CHEM1,6:R3-1:R1$$$V2.0)
IC50 [1, 4]: 26200 nM | IC50 (CoREST complex): 18300 nM | IC50 (MIER1 complex): 20100 nM | IC50 (MiDAC complex): 18100 nM | IC50 (RERE complex): 28700 nM | IC50 (SMRT complex (HDAC3)): 17400 nM | IC50 (Sin3A complex): 71600 nM

CC(=O)N[C@@H](CCCCN)C(=O)N[C@@H](C)C(=O)N[C@@H](C)C(=O)N[C@@H](C)C(=O)N[C@@H](CCCCCC(=O)NO)C(=O)N[C@@H](CO)C(=O)N[C@@H](C)C(N)=O [compound 22, H3(23–29)R26A K27Hd] (HELM PEPTIDE1{[ac].K.A.A.A.[O=C([C@H](CCCCCC(=O)[*:3])N[*:1])[*:2]].S.A.[am]}|CHEM1{[ON[*:1]]}$PEPTIDE1,CHEM1,6:R3-1:R1$$$V2.0)
IC50 [1, 4]: 172 nM | IC50 (CoREST complex): 287 nM | IC50 (MIER1 complex): 334 nM | IC50 (MiDAC complex): 203 nM | IC50 (RERE complex): 464 nM | IC50 (SMRT complex (HDAC3)): 110 nM

CC(=O)N[C@@H](C)C(=O)NCC(=O)NCC(=O)N[C@@H](C)C(=O)N[C@@H](CCCCCC(=O)NO)C(=O)N[C@@H](CCCNC(=N)N)C(=O)N[C@@H](Cc1c[nH]cn1)C(N)=O [compound 24, H4 (12-18) K16Hd K12A] (HELM PEPTIDE1{[ac].A.G.G.A.[O=C([C@H](CCCCCC(=O)[*:3])N[*:1])[*:2]].R.H.[am]}|CHEM1{[ON[*:1]]}$PEPTIDE1,CHEM1,6:R3-1:R1$$$V2.0)
IC50 [1, 4]: 3250 nM

CC(=O)N[C@@H](CCCCN)C(=O)NCC(=O)NCC(=O)N[C@@H](C)C(=O)N[C@@H](CCCCCC(=O)NO)C(=O)N[C@@H](C)C(=O)N[C@@H](Cc1c[nH]cn1)C(N)=O [compound 25, H4 (12-18) K16Hd R17A] (HELM PEPTIDE1{[ac].K.G.G.A.[O=C([C@H](CCCCCC(=O)[*:3])N[*:1])[*:2]].A.H.[am]}|CHEM1{[ON[*:1]]}$PEPTIDE1,CHEM1,6:R3-1:R1$$$V2.0)
IC50 [1, 4]: 429 nM

CC(=O)N[C@@H](CCCCN)C(=O)NCC(=O)NCC(=O)N[C@@H](C)C(=O)N[C@@H](CCCCCC(=O)NO)C(=O)N[C@@H](CCCNC(=N)N)C(=O)N[C@@H](C)C(N)=O [compound 26, H4 (12-18) K16Hd H18A] (HELM PEPTIDE1{[ac].K.G.G.A.[O=C([C@H](CCCCCC(=O)[*:3])N[*:1])[*:2]].R.A.[am]}|CHEM1{[ON[*:1]]}$PEPTIDE1,CHEM1,6:R3-1:R1$$$V2.0)
IC50 [1, 4]: 1150 nM

H3(1–7)K4Ac (ARTK(Ac)QTA-NH2; UniProt P68431 2-8, looked up, fragment) [compound 1, acetyl-lysine-containing histone H3 tail substrate peptide, C-terminal amide]
Initial Rate of HMR against histone peptides: Rate (% conversion min-1) [2]: 0.18 +/- 0.009 % conversion min-1

H3(6–12)K9Ac (TARK(Ac)STG-NH2; UniProt P68431 7-13, looked up, fragment) [compound 2, acetyl-lysine-containing histone H3 tail substrate peptide, C-terminal amide]
Initial Rate of HMR against histone peptides: Rate (% conversion min-1) [2]: 0.40 +/- 0.013 % conversion min-1

H3(11–17)K14Ac (TGGK(Ac)APR-NH2; UniProt P68431 12-18, looked up, fragment) [compound 3, acetyl-lysine-containing histone H3 tail substrate peptide, C-terminal amide]
Initial Rate of HMR against histone peptides: Rate (% conversion min-1) [2]: 0.10 +/- 0.027 % conversion min-1

H3(23–29)K27Ac (KAARK(Ac)SA-NH2; UniProt P68431 24-30, looked up, fragment) [compound 4, acetyl-lysine-containing histone H3 tail substrate peptide, C-terminal amide]
Initial Rate of HMR against histone peptides: Rate (% conversion min-1) [2]: 0.79 +/-0.075 % conversion min-1

H4(1–8)K5Ac [compound 5]
Initial Rate of HMR against histone peptides: Rate (% conversion min-1) [2]: 0.32 +/-0.065 % conversion min-1

H4(4–10)K8Ac (GKGGK(Ac)GL-NH2; UniProt P62805 5-11, looked up, fragment) [compound 6, acetyl-lysine-containing histone H4 tail substrate peptide, C-terminal amide]
Initial Rate of HMR against histone peptides: Rate (% conversion min-1) [2]: 0.16 +/-0.016 % conversion min-1

H4(9–15)K12Ac (GLGK(Ac)GGA-NH2; UniProt P62805 10-16, looked up, fragment) [compound 7, acetyl-lysine-containing histone H4 tail substrate peptide, C-terminal amide]
Initial Rate of HMR against histone peptides: Rate (% conversion min-1) [2]: 0.03 +/-0.020 % conversion min-1 | Km ([2]; 30 min time course, table of initial rates): Unstable

H4(12–18)K16Ac (KGGAK(Ac)RH-NH2; UniProt P62805 13-19, looked up, fragment) [compound 8, acetyl-lysine-containing histone H4 tail substrate peptide, C-terminal amide]
Initial Rate of HMR against histone peptides: Rate (% conversion min-1) [2]: 1.08 +/-0.024 % conversion min-1
